According to ChEMBL document CHEMBL1201862, “PubChem BioAssay data set” (2004):
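Tested at 5 concentrations; 48 h exposure; 96-well plates; endpoints linearly interpolated, else capped at highest concentration. The concentration for 50% growth inhibition is given as GI50.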 The source made the active and inactive calls. No stated cut-off is given here; in the data, active = GI50 up to about 1.1 µM and inactive = higher.

Key:
Assay in all cases: NCI tumour cell line growth inhibition, 48 h
XF498 = test system: XF498
OVCAR-5 = test system: OVCAR-5
KM12 = test system: KM12
SF-295 = test system: SF-295
LXFL 529 = test system: LXFL 529
UO-31 = test system: UO-31
HOP-92 = test system: HOP-92
MOLT-4 = test system: MOLT-4
UACC-257 = test system: UACC-257
DMS-114 = test system: DMS-114
SNB-19 = test system: SNB-19
K562 = test system: K562
HCC 2998 = test system: HCC 2998
HL-60 = test system: HL-60
CAKI-1 = test system: CAKI-1
SR = test system: SR
HCT-15 = test system: HCT-15
NCI-H460 = test system: NCI-H460
Malme-3M = test system: Malme-3M
HOP-62 = test system: HOP-62
HOP-18 = test system: HOP-18
SF-268 = test system: SF-268
HCT-116 = test system: HCT-116
OVCAR-3 = test system: OVCAR-3
SW-620 = test system: SW-620
OVCAR-8 = test system: OVCAR-8
HT-29 = test system: HT-29
NCI-H522 = test system: NCI-H522
SNB-75 = test system: SNB-75
SK-MEL-2 = test system: SK-MEL-2
SK-MEL-5 = test system: SK-MEL-5
UACC-62 = test system: UACC-62
A498 = test system: A498
ACHN = test system: ACHN
M19-MEL = test system: M19-MEL
786-0 = test system: 786-0
NCI/ADR-RES = test system: NCI/ADR-RES
EKVX = test system: EKVX
OVCAR-4 = test system: OVCAR-4
A549 = test system: A549
LOX IMVI = test system: LOX IMVI
DMS-273 = test system: DMS-273
SNB-78 = test system: SNB-78
U-251 = test system: U-251
CCRF-CEM = test system: CCRF-CEM
IGROV-1 = test system: IGROV-1
NCI-H23 = test system: NCI-H23
SF-539 = test system: SF-539
M14 = test system: M14
NCI-H226 = test system: NCI-H226
RPMI-8226 = test system: RPMI-8226
DLD-1 = test system: DLD-1
COLO 205 = test system: COLO 205
RXF 393 = test system: RXF 393
MCF7 = test system: MCF7
TK-10 = test system: TK-10
SK-OV-3 = test system: SK-OV-3
KM-20L2 = test system: KM-20L2
SK-MEL-28 = test system: SK-MEL-28
SN12C = test system: SN12C
MDA-N = test system: MDA-N
MDA-MB-435 = test system: MDA-MB-435
DU-145 = test system: DU-145
Hs-578T = test system: Hs-578T
BT-549 = test system: BT-549
MDA-MB-231 = test system: MDA-MB-231
PC-3 = test system: PC-3
T47D = test system: T47D

Measured: GI50

Cn1sc2ccccc2c1=S
inactive: XF498 11.9 µM | OVCAR-5 20 µM | KM12 12 µM | SF-295 12.6 µM | LXFL 529 14 µM | UO-31 15.3 µM | HOP-92 16.6 µM | MOLT-4 4.04 µM | UACC-257 8.63 µM | DMS-114 2.58 µM | SNB-19 12.2 µM | K562 3.71 µM | HCC 2998 28.2 µM | HL-60 5.47 µM | CAKI-1 11.7 µM | SR 14 µM | NCI-H460 13.8 µM | Malme-3M 9.82 µM | HOP-62 16.5 µM | HOP-18 11.2 µM | SF-268 3.5 µM | HCT-116 3.21 µM | OVCAR-3 4.2 µM | SW-620 2.28 µM | OVCAR-8 9.71 µM | HT-29 10.7 µM | NCI-H522 3.16 µM | SNB-75 6.82 µM | SK-MEL-2 20 µM | SK-MEL-5 12.4 µM | UACC-62 5.78 µM | A498 48.5 µM | ACHN 13.8 µM | M19-MEL 4.59 µM | 786-0 3.85 µM | NCI/ADR-RES 3.21 µM | EKVX 8.69 µM | OVCAR-4 8.2 µM | A549 13.9 µM | LOX IMVI 1.78 µM | DMS-273 5.64 µM | SNB-78 15 µM | U-251 4.01 µM | CCRF-CEM 2.44 µM | IGROV-1 13 µM | NCI-H23 11.7 µM | SF-539 5.83 µM | M14 10.4 µM | NCI-H226 23.2 µM | RPMI-8226 6.73 µM | DLD-1 3.07 µM | COLO 205 13.3 µM | RXF 393 3.08 µM | MCF7 2.64 µM | TK-10 24.1 µM | SK-OV-3 36.1 µM | KM-20L2 13.7 µM | SK-MEL-28 8.11 µM | SN12C 6.75 µM
5.5 µM: HCT-15

Cc1cc(NC(=O)C(=O)Cc2nc3ccccc3s2)ccc1Cl
> 100 µM: HCT-15
inactive: XF498 > 100 µM | OVCAR-5 > 100 µM | KM12 > 100 µM | SF-295 > 100 µM | LXFL 529 > 100 µM | UO-31 > 100 µM | HOP-92 > 100 µM | MOLT-4 > 100 µM | UACC-257 > 93.3 µM | DMS-114 > 100 µM | SNB-19 > 100 µM | K562 > 100 µM | HCC 2998 > 100 µM | MDA-N > 100 µM | CAKI-1 > 100 µM | SR > 100 µM | MDA-MB-435 > 100 µM | NCI-H460 > 100 µM | Malme-3M > 100 µM | HOP-62 > 100 µM | HOP-18 21.8 µM | SF-268 > 100 µM | HCT-116 > 100 µM | OVCAR-3 > 100 µM | SW-620 > 100 µM | OVCAR-8 > 100 µM | HT-29 > 100 µM | NCI-H522 > 100 µM | SNB-75 > 100 µM | SK-MEL-2 > 100 µM | SK-MEL-5 > 100 µM | UACC-62 > 100 µM | A498 > 100 µM | ACHN > 100 µM | DU-145 > 100 µM | M19-MEL > 100 µM | 786-0 > 100 µM | NCI/ADR-RES > 100 µM | EKVX > 100 µM | OVCAR-4 > 100 µM | A549 > 100 µM | LOX IMVI > 100 µM | DMS-273 > 100 µM | SNB-78 > 100 µM | U-251 > 100 µM | CCRF-CEM > 100 µM | IGROV-1 > 100 µM | NCI-H23 > 100 µM | SF-539 > 100 µM | M14 > 100 µM | NCI-H226 > 100 µM | Hs-578T > 100 µM | RPMI-8226 > 100 µM | BT-549 > 100 µM | DLD-1 > 100 µM | COLO 205 > 100 µM | RXF 393 > 100 µM | MDA-MB-231 > 100 µM | PC-3 > 100 µM | MCF7 > 100 µM | TK-10 > 100 µM | SK-OV-3 > 100 µM | KM-20L2 > 100 µM | SK-MEL-28 > 100 µM | SN12C > 100 µM | T47D > 100 µM
